BindingDB's records for doi:10.7270/Q2BR8QM3 (Nmmlsc, 2008)
Structures can show the parent of a compound that is named as a salt.

Biological target: T1, Bcl-2-like protein 2 (Homo sapiens, UniProt Q92843)
T1 sequence (Q92843 whole entry): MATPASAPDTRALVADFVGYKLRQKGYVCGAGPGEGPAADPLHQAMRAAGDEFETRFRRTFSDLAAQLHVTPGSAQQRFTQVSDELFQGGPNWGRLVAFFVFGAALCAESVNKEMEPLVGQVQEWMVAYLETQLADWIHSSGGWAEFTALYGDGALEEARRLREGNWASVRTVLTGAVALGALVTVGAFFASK
Assay: modulators of Bim-Bcl-W protein interaction, dose response, biochemical, multiplexed, bead-based flow cytometry, fluorescence (AID 1330)

[1] = inactive by the depositor's call

Row | SMILES | EC50 [1] [µM] | EC50 [µM]
1 | O=C(/C=C\c1ccc(-c2ccccc2)o1)c1ccccc1 [(Z)-1-phenyl-3-(5-phenyl-2-furanyl)-2-propen-1-one] | 10.6 | 
2 | CN1CCc2cccc3c2[C@H]1Cc1ccc(O)c(O)c1-3 [APOMORPHINE HYDROCHLORIDE] |  | 19
3 | COc1cc(C2Nc3cccc4cccc(c34)N2)ccc1OC(C)=O [Acetic acid 4-(2,3-dihydro-1H-perimidin-2-yl)-2-methoxy-phenyl ester] | 11.5 | 
4 | COC(=O)CSc1ncnc2c1sc1nc(-c3ccco3)c3c(c12)CC(C)(C)OC3 [MLS000039339] | 34 | 
5 | CCOc1cc(C2Nc3cccc4cccc(c34)N2)ccc1O [MLS000068595] | 31.7 | 
6 | O=C1c2ccccc2-c2onc3ccc(NCc4ccco4)c1c23 [MLS000080234] |  | 8.37
7 | Cc1cc(-c2nnc3n2N=C(c2ccc(-c4ccccc4)cc2)CS3)[nH]n1 [MLS000082991] | 7.58 | 
8 | Cc1cc2n(c1)CCn1c(C)ccc1-2 [MLS000104384] | 13.6 | 
9 | CCOC(=O)C1CCN(C(=O)Nc2ccc3nc(-c4ccco4)c(-c4ccco4)nc3c2)CC1 [MLS000113285] |  | 4.93
10 | Clc1nc(NCc2cccnc2)nc(N2CCOCC2)n1 [MLS000121154] | 18.5 | 
11 | O=[N+]([O-])c1ccc(N=NCc2ccc(O)c(O)c2O)c(S(=O)(=O)N2CCOCC2)c1 [MLS000336720] |  | 3.52
12 | Cc1ccc(NC2=C(NC(=O)c3ccccc3)C(=O)c3ccccc3C2=O)cc1Cl [MLS000392290] | 4.34 | 
13 | O=C1C=CC(C=NNC(=O)C(=Cc2ccc([N+](=O)[O-])cc2)NC(=O)c2ccccc2)C(O)=C1O (stereo not drawn) [MLS000530401] |  | 4.76
14 | COc1ccc2c3c(cccc13)N(C)N=C2C [MLS000554700] |  | 1.56
15 | CCOc1cccc(CNc2ccc(O)cc2)c1OCc1ccccc1Cl [MLS000580486] | 6.13 | 
16 | COCCCn1c(N)c(C(=O)Nc2sc3c(c2C(=O)OC)CCCC3)c2nc3ccccc3nc21 [MLS000595323] | 2.34 | 
17 | COc1cc2nc(=S)[nH]c(NCCc3ccc(S(N)(=O)=O)cc3)c2cc1OC [MLS000674601] | 0.67 | 
18 | COc1ccc(C)cc1-n1c(=O)c2ccccc2c2ccccc2c1=O [MLS000682999] | 24.2 | 
19 | Fc1ccc(C2=Nc3cccc4cccc(c34)N2)cc1 [MLS000687139] | 9.76 | 
20 | OCCN1CCN(CCCc2c3c(cc4c2CCC4)CCC3)CC1 [MLS000698424] |  | 16.6
21 | COc1ccc(/C=C/C(=O)c2cc(Br)ccc(=O)c2O)cc1 [MLS000702099] | 27.5 | 
22 | CCOC(=O)c1c(O)nc2ccc(Cl)c3c2c1-c1ccccc1C3=O [MLS000704595] | 6.14 | 
23 | Cc1ccc(/C=C/C(=O)c2ccccc(=O)c2O)cc1C [MLS000756172] | 27.9 | 
24 | COc1cccc2c(SCC(=O)NN=Cc3ccc(O)cc3O)cc(C)nc12 [N'-[(E)-(2-hydroxy-4-oxo-1-cyclohexa-2,5-dienylidene)methyl]-2-[(8-methoxy-2-methyl-4-quinolinyl)thio]acetohydrazide] |  | 55.2
25 | c1ccc(Nc2cccc(Nc3ccccc3)n2)cc1 [N,N'-diphenyl-2,6-pyridinediamine] |  | 2.58
26 | COc1cc(C=NNC(=O)CN(Cc2ccco2)S(=O)(=O)c2ccccc2)ccc1O [N-(2-furanylmethyl)-N-[2-[[(E)-(3-methoxy-4-oxo-1-cyclohexa-2,5-dienylidene)methyl]hydrazo]-2-oxoethyl]benzenesulfonamide] |  | 15.3
27 | CC(=O)c1ccc(NC(=O)c2ccc3nc(-c4ccco4)c(-c4ccco4)nc3c2)cc1 [N-(4-acetylphenyl)-2,3-di-2-furyl-6-quinoxalinecarboxamide] | 3.97 | 

Row | SMILES | EC50 [1] [µM] | EC50 [µM]
28 | COc1cccc(CN=Nc2nn3cnnc3c3ccccc23)c1 [N-[1-(3-Methoxy-phenyl)-meth-(E)-ylidene]-N'-[1,2,4]triazolo[3,4-a]phthalazin-6-yl-hydrazine] |  | 2.43
29 | COc1ccc(CCNC(=O)c2ccc3nc(-c4ccco4)c(-c4ccco4)nc3c2)cc1OC [N-[2-(3,4-dimethoxyphenyl)ethyl]-2,3-di-2-furylquinoxaline-6-carboxamide] | 12.2 | 
30 | COc1ccccc1NC1=C(NC(C)=O)C(=O)c2ccccc2C1=O [N-[3-(2-methoxyanilino)-1,4-dioxonaphthalen-2-yl]acetamide] | 4 | 
31 | CC(=O)NC1=C(NC2CCS(=O)(=O)C2)C(=O)c2ccccc2C1=O (stereo not drawn) [N-[3-[(1,1-dioxothiolan-3-yl)amino]-1,4-dioxonaphthalen-2-yl]acetamide] | 3.49 | 
32 | Cc1cccc(C(=O)/N=c2\c(C#N)cc3c(=O)n4cccc(C)c4nc3n2Cc2ccco2)c1 [N-[3-cyano-1-(furan-2-ylmethyl)-10-methyl-5-oxodipyrido[3,4-c:1',2'-f]pyrimidin-2-ylidene]-3-methylbenzamide] | 41.3 | 
33 | COc1cc(CNc2ccc(N3CCCC3)cc2)cc(Cl)c1OC [N-[(3-chloranyl-4,5-dimethoxy-phenyl)methyl]-4-pyrrolidin-1-yl-aniline] | 3.72 | 
34 | CCC(=O)N(CC)C1C(=O)C(=O)c2ccccc2C1=O (stereo not drawn) [N-ethyl-N-(1-hydroxy-3,4-dioxo-2-naphthalenyl)propanamide] |  | 0.92
35 | Cc1ccc(C=NN(C)C2=NS(=O)(=O)c3ccccc32)o1 [N-methyl-N-[(5-methyl-2-furanyl)methylideneamino]-1,1-dioxo-1,2-benzothiazol-3-amine] | 16.6 | 
36 | CC(C)(C)NC(=O)COc1ccc(CNc2ccc3[nH]c(O)nc3c2)cc1 [N-tert-butyl-2-[4-[[(2-oxidanylidene-1,3-dihydrobenzimidazol-5-yl)amino]methyl]phenoxy]ethanamide] | 6.29 | 
37 | COCCCNc1nc(S)nc2cc(OC)c(OC)cc12 [SMR000026607] | 3.68 | 
38 | O=C1c2ccccc2-c2onc3ccc(NCCCn4ccnc4)c1c23 [SMR000044769] |  | 1.11
39 | CSc1nnc2c3cc(C)ccc3n(Cc3ccccc3)c2n1 [SMR000046397] | 29.6 | 
40 | c1ccc(-c2nc(N3CCCCCC3)c3ccccc3n2)nc1 [SMR000046752] | 21.7 | 
41 | Nc1c(C(=O)NCc2ccco2)sc2nc3c(cc12)C(=O)CCC3 [SMR000072940] | 31.8 | 
42 | O=C(Nc1ccc2nc(-c3ccco3)c(-c3ccco3)nc2c1)NC1CC1 [SMR000118524] | 16.4 | 
43 | O=C(NCCO)c1ccc2nc(-c3ccco3)c(-c3ccco3)nc2c1 [SMR000121771] | 11.2 | 
44 | O=C(Nc1cccc(C(F)(F)F)c1)c1ccc2nc(-c3ccco3)c(-c3ccco3)nc2c1 [SMR000142217] |  | 9.02
45 | COC(=O)c1c(C(=O)OC)c2cccc3cc(-c4ccccc4)c4ccc1c4n32 [SMR000161417] | 1.31 | 
46 | O=c1[nH]c2ccc(N=Cc3c(O)ccc4cc(Br)ccc34)cc2[nH]1 [SMR000171789] |  | 4.15
47 | Nc1ccc(C2=Nc3cccc4cccc(c34)N2)cc1 [SMR000175908] | 15.7 | 
48 | C#CCn1cc(C=C2C(=O)c3ccccc3C2=O)c2ccccc21 [SMR000196125] |  | 9.02
49 | CN(N=Cc1cccnc1)C1=NS(=O)(=O)c2ccccc21 [SMR000207578] | 17.3 | 
50 | CNCc1ccccc1Sc1ccc(O)c(O)c1 [SMR000230497] |  | 42.4
51 | Oc1ccc(NCc2ccccc2OCc2ccccc2)cc1 [SMR000231540] | 2.98 | 
52 | COc1ccc(OC)c(-n2c(=O)c3ccccc3c3ccccc3c2=O)c1 [SMR000236434] | 18 | 
53 | CN=c1scc(-c2cccs2)n1N=Cc1ccc(O)c(O)c1O [SMR000242177] |  | 5.05
